Experimental data taken from patent US20110212909A1, “Use of Ginsenoside Compound K in the Preparation of a Medicament for the Prevention and Treatment of Atherosclerosis” (priority 2008, published 2011).
Marks after values point to notes of the source that are not given here.

Assays:
Format in all cases: in vivo
Settings in all cases: apo E−/− mice, 15 weeks
NF-κB mRNA = experiment: Real-time quantitative PCR of NF-κB mRNA in apo E−/− mouse aorta
Description: (§3) Total RNA sample of root of aorta of apo E^−/^− mouse: Total RNA samples of root of aorta in each group mouse were extracted, and utilized for analysis of gene expression of various lipid metabolic factors, inflammatory factors, and nucleic transcription factors associated with AS plaque development.

[1] = system: AS plaque in apo E−/− mouse aorta; experiment: Morphology index image analysis of AS plaque at aortic root (HE and MASSON staining)
Experimental: (§1) 80 healthy clean grade C57BL/6J apo E^−/^− mice of 10 weeks old, wherein male and female mice were fifty-fifty, weight 20-22 g, were breed and divided into individual cage in sterile laminar flow rack, allowing mice to freely drink water and get food. Mice were raised for 30 weeks by “Western Diet” (routine mouse feed +0.15% cholesterol +21% fat) high fat feed (^60cobalt sterilization radiation treatment), with raising conditions being SPF grade, room temperature maintained at 24° C., relative humidity of 50%, and lighting time of 7: 30-19: 30. Animal house was sterilized by ultraviolet lamp once every two days, in order to maintain sterile environment of laminar flow rack (establishment of animal model of atherosclerosis refers to reference: Barish G D, Atkins A R, Downes M, Olson P, Chong L W, Nelson M, Zou Y H, Hwang H S, Kang H J, Curtiss L, Evans R M, Lee C H. PPARδ regulates multiple proinflammatory pathways to suppress atherosclerosis. Proc Natl Acad Sci, 2008, 105 (11): 4271-4276.).
5 mice of apo E^−/^− mice raised for 15 weeks were randomly selected and sacrificed, root of aorta of which was taken, and replication condition in AS model was observed by HE staining. The remaining mice were randomly divided into 5 groups as follows (n=15):
A. model group: vehicle; B. ginsenoside compound K low dose group: ginsenoside compound K 12.5 mg/kg/day; C. ginsenoside compound K middle dose group: ginsenoside compound K 25.0 mg/kg/day; D. ginsenoside compound K high dose group: ginsenoside compound K 50.0 mg/kg/day; E. simvastatin control group: simvastatin 10.0 mg/kg/day.
(§2) Above drugs were firstly solved in DMSO, then suspended in 0.5% carboxymethylcellulose solution, mixed homogeneously, and then were administered via gavage, once a day. Mice were weighted once a week, and ingestion amounts were recorded, and drug doses were adjusted according to weight, interfering for 15 weeks. All the animal were sacrificed in 30th week.
Tissues of apo E^−/^− mice were sliced for AS plaque pathology: blood of eye sockets venous plexus of apo E−/− mice was sampled before the mice was sacrificed by cervical dislocation, and aorta was fixed by converse infusion of physiological saline comprising 4% paraformaldehyde into left ventricle, and then whole aorta was cut off from root of aorta to terminal end of abdomen aorta. Root of aorta was taken, and embedded routinely by paraffin, and slices of thickness of 5 μm were continuously cut off from root of aorta, and were subjected separately to HE staining, and MASSON staining, and then were utilized for AS plaque morphological index analysis of aortic valve cross section.
Pathological staining: […]sequent 2 pieces of slices were picked up from each incisal surface of sequent paraffin slices of aorta root per mouse, and were separately subjected to HE staining, and MASSON staining, and were observed under light microscope. […]remaining aorta was stained by Sudan IV, and was observed under light microscope.
• blood fat assay: TC, TG, HDL-C, and LDL-C concentrations in serum were determined by applying Olympus Au2700 fully automatic biochemical appearance. • serum inflammatory markers assay: hs-CRP and sCD40L concentrations were determined by applying double antibody sandwich ELISA, in accordance with ELISA kit operating instruction (hs-CRP ELISA kit bought from Herrenberg company, Germany; sCD40L ELISA kit bought from Bender Medsystems company, Austria). • real-time quantitative PCR analysis was carried out on expression of CD36, perilipin, ABCA1, LXRα, MMP-9 and NF-κ B mRNA in apo E^−/^− mouse aorta (a reference method: Zhang Yiguan, Li Xiaohui, Fan Jishan, Zhang Haigang, Li Shuhui, Liao Wenqiang, Pang Yan, Jia Yi. Total panax notoginsenosides suppress atherosclerosis formation in rats by means of antiinflammatory and blood fat regulating action. Progress in Modern Biomedicine. […]

perilipin mRNA = experiment: Real-time quantitative PCR of perilipin mRNA in apo E−/− mouse aorta
Description: as §3

[2] = system: AS plaque in apo E−/− mouse aorta; experiment: Sudan IV staining of aorta, proportion of plaque area in arteria lining endothelium area
Description: Pathological staining: □sequent 2 pieces of slices were picked up from each incisal surface of sequent paraffin slices of aorta root per mouse, and were separately subjected to HE staining, and MASSON staining, and were observed under light microscope. □remaining aorta was stained by Sudan IV, and was observed under light microscope.

LXRα mRNA = experiment: Real-time quantitative PCR of LXRα mRNA in apo E−/− mouse aorta
Experimental: as §1
5 mice of apo E^−/^− mice raised for 15 weeks were randomly selected and sacrificed, root of aorta of which was taken, and replication condition in AS model was observed by HE staining. The remaining mice were randomly divided into 5 groups as follows (n=15): […]
as §2, with “All the animal were sacrificed in 30th week.” left out
• blood fat assay: TC, TG, HDL-C, and LDL-C concentrations in serum were determined by applying Olympus Au2700 fully automatic biochemical appearance. • serum inflammatory markers assay: hs-CRP and sCD40L concentrations were determined by applying double antibody sandwich ELISA, in accordance with ELISA kit operating instruction (hs-CRP ELISA kit bought from Herrenberg company, Germany; sCD40L ELISA kit bought from Bender Medsystems company, Austria). • real-time quantitative PCR analysis was carried out on expression of CD36, perilipin, ABCA1, LXRα, MMP-9 and NF-κ B mRNA in apo E^−/^− mouse aorta (a reference method: Zhang Yiguan, Li Xiaohui, Fan Jishan, Zhang Haigang, Li Shuhui, Liao Wenqiang, Pang Yan, Jia Yi. […] 2007, 27 (11): 1601-1607)0 • morphology index image analysis: When slices were HE stained, under X40 fold ordinary light microscope, artery atherosclerosis plaque area of each incisal surface was determined by “Image Pro Plus 5.0” image analysis software. […] As to Masosn staining, aortic root collagen area (CA) was measured by “Image Pro Plus 5.0” image analysis software, and collagen vessel area ratio (CA/CVA) was calculated. […]

[3] = C-K high dose 50.0 mg/kg/day gavage
[4] = C-K middle dose 25.0 mg/kg/day gavage
[5] = simvastatin 10.0 mg/kg/day gavage

Q: For `CC(C)=CCC[C@](C)(OC1OC(CO)C(O)C(O)C1O)C1CC[C@]2(C)C1[C@H](O)CC1[C@@]3(C)CC[C@H](O)C(C)(C)C3CC[C@]12C` (stereo partly drawn) [C-K, 20-O-β-D-glucopyranosyl 20-(S)-protopanaxadiol], which “expression of NF-κB mRNA in aorta (relative concentrations)” value (NF-κB mRNA; [3]) is on record?
A: 0.69 ± 0.16^b

Q: What about the “expression of NF-κB mRNA in aorta (relative concentrations)” value (NF-κB mRNA; C-K low dose 12.5 mg/kg/day gavage, model 1.27 ± 0.18) of the same compound?
A: 0.90 ± 0.19^b

Q: And the “expression of NF-κB mRNA in aorta (relative concentrations)” value (NF-κB mRNA; [4])?
A: 0.78 ± 0.23^b

Q: And the “CA (aortic root collagen area)” value [1, 3]?
A: 0.69 ± 0.13^b mm^2

Q: And the “CA/CVA (corrected collagen area)” value [1, 3]?
A: 42.40 ± 6.74^b %

Q: And the “CVA (vessel cross section area)” value [1, 3]?
A: 1.62 ± 0.12 mm^2

Q: What about the “LCA (lipid core area)” value [1, 3] of the same compound?
A: 0.21 ± 0.03^b mm^2

Q: And the “LCA/PA (corrected lipid core area)” value [1, 3]?
A: 40.01 ± 1.94^b %

Q: What about the “PA (plaque area)” value [1, 3] of the same compound?
A: 0.52 ± 0.10^b mm^2

Q: What about the “PA/CVA (corrected plaque area)” value [1, 3] of the same compound?
A: 32.29 ± 6.29^b %

Q: And the “mFCT (minimal fibrous cap thickness)” value [1, 3]?
A: 30.65 ± 1.37^b μm

Q: And the “CA (aortic root collagen area)” value ([1]; C-K low dose 12.5 mg/kg/day gavage, model 0.39 ± 0.13)?
A: 0.56 ± 0.14^b mm^2

Q: What about the “LCA (lipid core area)” value ([1]; C-K low dose 12.5 mg/kg/day gavage, model 0.44 ± 0.05) of the same compound?
A: 0.32 ± 0.05^b mm^2

Q: What about the “PA (plaque area)” value ([1]; C-K low dose 12.5 mg/kg/day gavage, model 0.90 ± 0.12) of the same compound?
A: 0.78 ± 0.13^a mm^2

Q: What about the “CVA (vessel cross section area)” value ([1]; C-K low dose 12.5 mg/kg/day gavage, model 1.70 ± 0.19) of the same compound?
A: 1.68 ± 0.16 mm^2

Q: And the “mFCT (minimal fibrous cap thickness)” value ([1]; C-K low dose 12.5 mg/kg/day gavage, model 20.40 ± 3.31)?
A: 28.48 ± 1.89^b μm

Q: And the “CA/CVA (corrected collagen area)” value ([1]; C-K low dose 12.5 mg/kg/day gavage, model 22.60 ± 5.41)?
A: 33.33 ± 4.37^b %

Q: What about the “LCA/PA (corrected lipid core area)” value ([1]; C-K low dose 12.5 mg/kg/day gavage, model 48.28 ± 2.71) of the same compound?
A: 41.03 ± 1.32^b %

Q: And the “PA/CVA (corrected plaque area)” value ([1]; C-K low dose 12.5 mg/kg/day gavage, model 53.82 ± 10.02)?
A: 46.43 ± 7.38^a %

Q: And the “CA (aortic root collagen area)” value [1, 4]?
A: 0.62 ± 0.09^b mm^2

Q: What about the “CA/CVA (corrected collagen area)” value [1, 4] of the same compound?
A: 36.08 ± 4.82^b %

Q: And the “CVA (vessel cross section area)” value [1, 4]?
A: 1.71 ± 0.14 mm^2

Q: What about the “LCA (lipid core area)” value [1, 4] of the same compound?
A: 0.29 ± 0.05^b mm^2

Q: What about the “LCA/PA (corrected lipid core area)” value [1, 4] of the same compound?
A: 40.33 ± 1.18^b %

Q: And the “PA (plaque area)” value [1, 4]?
A: 0.72 ± 0.12^a mm^2

Q: And the “PA/CVA (corrected plaque area)” value [1, 4]?
A: 42.26 ± 8.35^a %

Q: What about the “mFCT (minimal fibrous cap thickness)” value [1, 4] of the same compound?
A: 30.44 ± 1.75^b μm

Q: And the “expression of perilipin mRNA in aorta (relative concentrations)” value (perilipin mRNA; [3])?
A: 0.51 ± 0.54^a

Q: What about the “expression of perilipin mRNA in aorta (relative concentrations)” value (perilipin mRNA; C-K low dose 12.5 mg/kg/day gavage, model 1.08 ± 0.06) of the same compound?
A: 0.68 ± 0.56^a

Q: And the “expression of perilipin mRNA in aorta (relative concentrations)” value (perilipin mRNA; [4])?
A: 0.60 ± 0.49^a

Q: And the “plaque area/ arteria lining endothelium area” value [2, 3]?
A: 6.73 ± 0.65^b %

Q: And the “plaque area/ arteria lining endothelium area” value ([2]; C-K low dose 12.5 mg/kg/day gavage, model 12.24 ± 0.45)?
A: 9.28 ± 0.39^b %

Q: And the “plaque area/ arteria lining endothelium area” value [2, 4]?
A: 9.54 ± 0.21^b %

Q: And the “expression of LXRα mRNA in aorta (relative concentrations)” value (LXRα mRNA; [3])?
A: 1.36 ± 0.06^b

Q: What about the “expression of LXRα mRNA in aorta (relative concentrations)” value (LXRα mRNA; C-K low dose 12.5 mg/kg/day gavage, model 0.87 ± 0.06) of the same compound?
A: 1.26 ± 0.05^b

Q: And the “expression of LXRα mRNA in aorta (relative concentrations)” value (LXRα mRNA; [4])?
A: 1.33 ± 0.05^b

Q: Which “expression of NF-κB mRNA in aorta (relative concentrations)” value (NF-κB mRNA; [5]) does the source give for `CCC(C)(C)C(=O)O[C@H]1C[C@@H](C)C=C2C=C[C@H](C)[C@H](CC[C@@H]3C[C@@H](O)CC(=O)O3)[C@H]21` [simvastatin, reference compound] here?
A: 0.89 ± 0.16^b

Q: What about the “CA (aortic root collagen area)” value [1, 5] of the same compound?
A: 0.57 ± 0.08^a mm^2

Q: And the “CA/CVA (corrected collagen area)” value [1, 5]?
A: 34.73 ± 4.49^b %

Q: And the “CVA (vessel cross section area)” value [1, 5]?
A: 1.65 ± 0.11 mm^2

Q: And the “LCA (lipid core area)” value [1, 5]?
A: 0.32 ± 0.04^b mm^2

Q: And the “LCA/PA (corrected lipid core area)” value [1, 5]?
A: 43.39 ± 4.01^b %

Q: What about the “PA (plaque area)” value [1, 5] of the same compound?
A: 0.74 ± 0.17 mm^2

Q: And the “PA/CVA (corrected plaque area)” value [1, 5]?
A: 44.70 ± 8.44^a %

Q: And the “mFCT (minimal fibrous cap thickness)” value [1, 5]?
A: 27.72 ± 2.30^b μm

Q: What about the “expression of perilipin mRNA in aorta (relative concentrations)” value (perilipin mRNA; [5]) of the same compound?
A: 0.23 ± 1.32^b

Q: What about the “plaque area/ arteria lining endothelium area” value [2, 5] of the same compound?
A: 6.31 ± 0.19^b %

Q: What about the “expression of LXRα mRNA in aorta (relative concentrations)” value (LXRα mRNA; [5]) of the same compound?
A: 0.95 ± 0.07
